Test results reported in ChEMBL document CHEMBL5042526, “Design, Synthesis, and Biological Evaluation of Triazolone Derivatives as Potent PPARα/δ Dual Agonists for the Treatment of Nonalcoholic Steatohepatitis” (J Med Chem, 2022).
pEC50: −log10 of the molar value.

How the values were obtained:
[1] = target: T1, Peroxisome proliferator-activated receptor alpha (Homo sapiens, UniProt Q07869); assay: Agonist activity at PPARalpha (unknown origin)
T1 sequence (Q07869 whole entry): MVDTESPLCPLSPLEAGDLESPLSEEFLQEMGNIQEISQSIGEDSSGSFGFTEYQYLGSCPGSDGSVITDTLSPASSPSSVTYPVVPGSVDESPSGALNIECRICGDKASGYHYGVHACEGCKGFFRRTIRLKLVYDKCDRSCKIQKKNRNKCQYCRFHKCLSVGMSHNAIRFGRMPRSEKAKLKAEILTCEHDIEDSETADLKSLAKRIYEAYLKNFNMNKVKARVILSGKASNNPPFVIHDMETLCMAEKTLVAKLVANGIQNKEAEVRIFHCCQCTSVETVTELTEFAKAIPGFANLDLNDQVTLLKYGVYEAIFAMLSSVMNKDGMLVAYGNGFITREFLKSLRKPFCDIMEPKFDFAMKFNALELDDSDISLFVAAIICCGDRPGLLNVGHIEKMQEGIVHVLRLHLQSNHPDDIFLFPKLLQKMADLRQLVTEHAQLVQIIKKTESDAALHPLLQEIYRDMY

[2] = target: T2, Peroxisome proliferator-activated receptor delta (Homo sapiens, UniProt Q03181); assay: Agonist activity at PPARdelta (unknown origin)
T2 sequence (Q03181 whole entry): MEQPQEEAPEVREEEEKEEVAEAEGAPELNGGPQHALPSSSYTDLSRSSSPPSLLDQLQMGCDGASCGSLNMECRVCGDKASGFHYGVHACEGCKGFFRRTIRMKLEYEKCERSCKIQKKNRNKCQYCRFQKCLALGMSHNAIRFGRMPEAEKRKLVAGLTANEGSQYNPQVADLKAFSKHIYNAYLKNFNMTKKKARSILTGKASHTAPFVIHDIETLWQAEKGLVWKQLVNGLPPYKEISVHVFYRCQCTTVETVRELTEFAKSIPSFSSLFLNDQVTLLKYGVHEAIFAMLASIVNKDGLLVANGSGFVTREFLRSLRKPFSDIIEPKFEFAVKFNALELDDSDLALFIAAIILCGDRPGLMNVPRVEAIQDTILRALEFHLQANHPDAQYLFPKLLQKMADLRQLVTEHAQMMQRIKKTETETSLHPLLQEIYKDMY

[3] = target: T3, Peroxisome proliferator-activated receptor gamma (Homo sapiens, UniProt P37231); assay: Agonist activity at PPARgamma (unknown origin)
T3 sequence (P37231 whole entry): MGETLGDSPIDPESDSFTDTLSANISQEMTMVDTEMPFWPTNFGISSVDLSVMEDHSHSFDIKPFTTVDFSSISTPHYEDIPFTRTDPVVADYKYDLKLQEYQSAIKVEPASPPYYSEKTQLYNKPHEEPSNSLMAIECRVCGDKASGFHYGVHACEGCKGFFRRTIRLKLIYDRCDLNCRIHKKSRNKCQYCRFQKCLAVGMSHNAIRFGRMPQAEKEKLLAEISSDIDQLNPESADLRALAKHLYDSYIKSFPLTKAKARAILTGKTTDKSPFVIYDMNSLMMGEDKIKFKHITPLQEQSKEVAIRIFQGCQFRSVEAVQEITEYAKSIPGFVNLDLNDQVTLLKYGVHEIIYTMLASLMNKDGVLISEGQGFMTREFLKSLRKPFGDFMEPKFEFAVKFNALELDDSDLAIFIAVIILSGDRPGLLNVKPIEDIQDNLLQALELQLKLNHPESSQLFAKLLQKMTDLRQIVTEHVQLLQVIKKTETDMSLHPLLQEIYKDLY

[4] = target: T4, Peroxisome proliferator-activated receptor alpha (Homo sapiens) (UniProt Q07869); conditions: filed as agonist, dose 10.0 nM
T4 sequence (whole entry): T1 sequence (Q07869 whole entry)
Description: Agonist activity at PPARalpha (unknown origin) assessed as maximal activation at 10 nM relative to GW7647

[5] = target: T5, Peroxisome proliferator-activated receptor delta (Homo sapiens) (UniProt Q03181); conditions: filed as agonist, dose 10.0 nM
T5 sequence (whole entry): T2 sequence (Q03181 whole entry)

[6] = Microsomal stability in human liver microsomes assessed as terminal elimination half life at 1 uM measured upto 60 mins by LC-MS/MS-11 analysis; type: ADME, Microsome
[7] = Intrinsic clearance in human liver microsomes at 1 uM measured upto 60 mins by LC-MS/MS-11 analysis; type: ADME, Microsome; conditions: read-out: CLH
[8] = target: T6, Peroxisome proliferator-activated receptor gamma (Homo sapiens) (UniProt P37231); conditions: filed as agonist, dose 10.0 nM
T6 sequence (whole entry): T3 sequence (P37231 whole entry)

[9] = target: T4, Peroxisome proliferator-activated receptor alpha (Homo sapiens); assay: Agonist activity at PPARalpha (unknown origin) assessed as maximal activation at 10 nM relative to control; conditions: filed as agonist
[10] = target: T5, Peroxisome proliferator-activated receptor delta (Homo sapiens); assay: Agonist activity at PPARdelta (unknown origin) assessed as maximal activation at 10 nM relative to control; conditions: filed as agonist
[11] = target: T6, Peroxisome proliferator-activated receptor gamma (Homo sapiens); assay: Agonist activity at PPARgamma (unknown origin) assessed as maximal activation at 10 nM relative to control; conditions: filed as agonist

Structure (SMILES)	pEC50 [1]	pEC50 [2]	pEC50 [3]	Emax [4]	Emax [5]	Emax [8]	other results
Cc1cc(Cn2ncn(-c3ccc(OC(F)(F)F)cc3)c2=O)cc(Cl)c1OC(C)(C)C(=O)O	8.12	7.55	< 5.30	110%	129%		
Cc1cc(Cn2ncn(-c3ccc(C(F)(F)F)cc3)c2=O)cc(C)c1OC(C)(C)C(=O)O		8.77					half-life at 1 µM [6]: > 2 h; CLint scaled at 1 µM [7]: 3.6 mL/min/kg
CC(C)(Oc1c(F)cc(Cn2ncn(-c3ccc(C(F)(F)F)cc3)c2=O)cc1F)C(=O)O			< 5.30				
Cc1cc(OCn2ncn(-c3ccc(C(F)(F)F)cc3)c2=O)cc(C)c1OC(C)(C)C(=O)O			< 5.30	69%	72%		
CC(C)(Oc1c(F)cc(Cn2ncn(-c3ccc(OC(F)(F)F)cc3)c2=O)cc1F)C(=O)O			< 5.30	99%	113%		
Cc1cc(CCCn2ncn(-c3ccc(C(F)(F)F)cc3)c2=O)cc(C)c1OC(C)(C)C(=O)O			< 5.30	78%	72%		
Cc1cc(Cn2ncn(-c3ccccc3C(F)(F)F)c2=O)cc(C)c1OC(C)(C)C(=O)O	< 5.30	< 5.30	5.42			84%	
CC(C)(Oc1ccc(Cn2ncn(-c3ccc(C(F)(F)F)cc3)c2=O)cc1)C(=O)O			< 5.30				
CC(C)(Oc1ccc(Cn2ncn(-c3ccc(OC(F)(F)F)cc3)c2=O)cc1OC(F)(F)F)C(=O)O				130%	160%	70%	
COc1ccc(-n2cnn(Cc3cc(C)c(OC(C)(C)C(=O)O)c(C)c3)c2=O)cc1				120%	107%	114%	
CC(C)(Oc1c(Cl)cc(Cn2ncn(-c3ccc(C(F)(F)F)cc3)c2=O)cc1Cl)C(=O)O							half-life at 1 µM [6]: > 2 h; CLint scaled at 1 µM [7]: 10.3 mL/min/kg
Cc1cc(Cn2ncn(-c3ccc(S(C)(=O)=O)cc3)c2=O)cc(C)c1OC(C)(C)C(=O)O		< 5.30	< 5.30				
Cc1cc(Cn2ncn(-c3ccc(Cl)cc3)c2=O)cc(C)c1OC(C)(C)C(=O)O				126%	114%	180%	
CC(C)(Oc1ccc(Cn2ncn(-c3ccc(OC(F)(F)F)cc3)c2=O)cc1)C(=O)O			< 5.30	109%	71%		
Cc1cc(Cn2ncn(-c3ccc(C(C)C)cc3)c2=O)cc(C)c1OC(C)(C)C(=O)O	8.12						
Cc1cc(Cc2cc(-c3ccc(Br)cc3)on2)cc(C)c1OC(C)(C)C(=O)O	7.19	7.62	5.56				Emax [9]: 135%; Emax [10]: 75%; Emax [11]: 118%
CCc1cc(Cn2ncn(-c3ccc(C(F)(F)F)cc3)c2=O)cc(CC)c1OC(C)(C)C(=O)O	7.23						
CC(C)(Oc1ccc(Cn2ncn(-c3ccc(OC(F)(F)F)cc3)c2=O)cc1F)C(=O)O			< 5.30	102%	105%		

Structure (SMILES)	pEC50 [1]	pEC50 [2]	pEC50 [3]	Emax [4]	Emax [5]	Emax [8]	other results
Cc1cc(-n2ncn(-c3ccc(C(F)(F)F)cc3)c2=O)cc(C)c1OC(C)(C)C(=O)O	< 5.30	< 5.30	< 5.30				
Cc1cc(Cn2ncn(-c3ccc(C#N)cc3)c2=O)cc(C)c1OC(C)(C)C(=O)O	< 5.30	< 5.30	< 5.30				
O=C(O)CCCc1cc2cc(Cl)ccc2n1S(=O)(=O)c1ccc2ncsc2c1 [LANIFIBRANOR]	5.51	5.53	6.25				Emax [9]: 65%; Emax [10]: 89%; Emax [11]: 119%
Cc1cc(Cn2ncn(-c3ccccc3)c2=O)cc(C)c1OC(C)(C)C(=O)O			6.06				
Cc1cc(Cn2ncn(-c3ccc(C(F)(F)F)cc3)c2=O)cc(Cl)c1OC(C)(C)C(=O)O	8.07	7.83		162%	81%	76%	half-life at 1 µM [6]: > 2 h; CLint scaled at 1 µM [7]: 3.96 mL/min/kg
CCc1cc(Cn2ncn(-c3ccc(OC(F)(F)F)cc3)c2=O)cc(CC)c1OC(C)(C)C(=O)O	7.35		5.51	129%	74%	125%	
Cc1cc(Cn2ncn(-c3ccc(C(F)(F)F)cc3)c2=O)cc(C(F)(F)F)c1OC(C)(C)C(=O)O		8.85					half-life at 1 µM [6]: > 2 h; CLint scaled at 1 µM [7]: 2.7 mL/min/kg
CC(C)(Oc1c(Cl)cc(Cn2ncn(-c3ccc(OC(F)(F)F)cc3)c2=O)cc1Cl)C(=O)O	8.17		< 5.30	153%	118%		
Cc1cc(Cn2ncn(-c3ccc(OC(F)(F)F)cc3)c2=O)cc(C(F)(F)F)c1OC(C)(C)C(=O)O		8.25					half-life at 1 µM [6]: > 2 h; CLint scaled at 1 µM [7]: 0.09 mL/min/kg
CC(C)(Oc1ccc(Cn2ncn(-c3ccc(OC(F)(F)F)cc3)c2=O)cc1Cl)C(=O)O				111%	95%	67%	
CC(C)(Oc1ccc(Cn2ncn(-c3ccc(C(F)(F)F)cc3)c2=O)cc1F)C(=O)O			< 5.30	136%	118%		
Cc1cc(Cn2ncn(-c3ccc(Br)cc3)c2=O)cc(C)c1OC(C)(C)C(=O)O		7.67					half-life at 1 µM [6]: > 2 h; CLint scaled at 1 µM [7]: 1.45 mL/min/kg
Cc1cc(Cn2ncn(-c3ccc(OC(F)(F)F)cc3)c2=O)ccc1OC(C)(C)C(=O)O				141%	97%	110%	
CC(C)(Oc1ccc(Cn2ncn(-c3ccc(C(F)(F)F)cc3)c2=O)cc1Cl)C(=O)O				150%	97%	99%	
CSc1ccc(C(=O)/C=C/c2cc(C)c(OC(C)(C)C(=O)O)c(C)c2)cc1 [ELAFIBRANOR]							Emax [9]: 82%; Emax [10]: 52%; Emax [11]: 115%; half-life at 1 µM [6]: > 2 h; CLint scaled at 1 µM [7]: 116 mL/min/kg
CCc1ccc(-n2cnn(Cc3cc(C)c(OC(C)(C)C(=O)O)c(C)c3)c2=O)cc1	7.85			98%	99%	149%	half-life at 1 µM [6]: > 2 h; CLint scaled at 1 µM [7]: 4.68 mL/min/kg
Cc1ccc(-n2cnn(Cc3cc(C)c(OC(C)(C)C(=O)O)c(C)c3)c2=O)cc1				114%	87%	87%	
CCOc1ccc(-n2cnn(Cc3cc(C)c(OC(C)(C)C(=O)O)c(C)c3)c2=O)cc1	7.49		< 5.30	79%	81%		
